Measured values published in patent US10770169B2, “Method of providing a treatment to a subject based on a dynamic pathway map” (THE REGENTS OF THE UNIVERSITY OF CALIFORNIA, priority 2010, dated 2020).
Where two headings read alike, the source gives them in different places.

Tests used:
CDK4 = CDK4 (Homo sapiens, UniProt P11802); settings: cited from earlier work
[1] = system: luminal, basal, claudin-low and ERBB2AMP breast cancer cell lines; test: Associations of clinically relevant subtypes and response (non-parametric ANOVA or t-test on GI50 ranks); assay type: cell-based, human; settings: Table 6; most sensitive subtype, FDR p<0.20
Summary of the method: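 Significance was set at FDR p<0.20 after combining p-values across three test sets. Subtype–response associations came from rank-based non-parametric ANOVA or t-tests on GI50. For three-class comparisons, post-hoc tests of each group against the rest identified the most sensitive group, with FDR correction.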

[2] = system: breast cancer cell lines with aberrant vs normal copy number; test: Association of recurrent copy number changes and response (t-test on GI50); assay type: cell-based, human; settings: FDR p<0.2
Summary of the method: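 A t-test compared GI50 between cell lines with high amplification at 8q24 (MYC), 11q13 (CCND1) or 20q13 (STK15/AURKA) and lines with low or no amplification, grouped together. Lines whose GI50 equalled the maximum concentration tested were excluded. Compounds with any group under five samples were also excluded.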

[3] = system: panel of 55 breast cancer cell lines; test: Cell growth inhibition assay (Cell Titer Glo, 72 h, 9 doses; GI50, TGI, LC50); assay type: cell-based, human; settings: Homo sapiens, read-out: GI50 (converted)

CDK4, sequence (P11802 whole entry, species assumed): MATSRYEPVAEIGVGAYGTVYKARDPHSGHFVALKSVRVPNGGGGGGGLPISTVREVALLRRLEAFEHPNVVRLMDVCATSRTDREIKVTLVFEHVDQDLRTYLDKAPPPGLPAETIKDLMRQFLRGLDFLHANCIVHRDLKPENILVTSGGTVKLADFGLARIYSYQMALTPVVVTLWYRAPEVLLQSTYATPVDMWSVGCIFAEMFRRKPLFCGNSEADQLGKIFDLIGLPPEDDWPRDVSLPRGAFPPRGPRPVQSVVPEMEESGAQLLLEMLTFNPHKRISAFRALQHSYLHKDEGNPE
CDK4, sequence (P24385 whole entry partner, species assumed): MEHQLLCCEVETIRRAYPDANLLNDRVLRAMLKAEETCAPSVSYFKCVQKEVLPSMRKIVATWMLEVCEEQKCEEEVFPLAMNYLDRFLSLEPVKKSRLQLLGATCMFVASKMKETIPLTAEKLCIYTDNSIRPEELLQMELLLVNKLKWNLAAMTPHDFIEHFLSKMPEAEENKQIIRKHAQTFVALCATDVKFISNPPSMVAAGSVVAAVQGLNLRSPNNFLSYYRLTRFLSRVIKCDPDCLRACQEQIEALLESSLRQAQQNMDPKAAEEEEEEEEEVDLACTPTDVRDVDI

SMILES: O=C1c2ccccc2-[n+]2ccc3c([nH]c4ccccc43)c21 [Fascaplysin]
- inhibition of CDK4 (CDK4): inhibited CDK4
- Subtype specificity [1]: Luminal
- association of response with homozygous deletion at 9p21 (CDKN2A) [2]: associated with response
- GI50 ([3]; 600MPE cell line, censored GI50 values): 288 nM
- GI50 ([3]; AU565, AU565 cell line, censored GI50 values): 120 nM
- GI50 ([3]; AU565, cell line AU565): 120 nM
- GI50 ([3]; BT-20, BT20 cell line, censored GI50 values): 309 nM
- GI50 ([3]; BT-20, cell line BT20): 309 nM
- GI50 ([3]; BT-474, BT474 cell line, censored GI50 values): 191 nM
- GI50 ([3]; BT-474, cell line BT474): 191 nM
- GI50 ([3]; BT-483, BT483 cell line, censored GI50 values): 66.1 nM
- GI50 ([3]; BT-483, cell line BT483): 66.1 nM
- GI50 ([3]; BT-549, BT549 cell line, censored GI50 values): 513 nM
- GI50 ([3]; BT-549, cell line BT549): 513 nM
- GI50 ([3]; CAMA-1, CAMA1 cell line, censored GI50 values): 245 nM
- GI50 ([3]; CAMA-1, cell line CAMA1): 245 nM
- GI50 ([3]; HCC38, HCC38 cell line, censored GI50 values): 275 nM
- GI50 ([3]; HCC38, cell line HCC38): 275 nM
- GI50 ([3]; HCC70, HCC70 cell line, censored GI50 values): 126 nM
- GI50 ([3]; HCC70, cell line HCC70): 126 nM
- GI50 ([3]; HCC202, HCC202 cell line, censored GI50 values): 42.7 nM
- GI50 ([3]; HCC202, cell line HCC202): 42.7 nM
- GI50 ([3]; HCC1143, HCC1143 cell line, censored GI50 values): 275 nM
- GI50 ([3]; HCC1143, cell line HCC1143): 275 nM
- GI50 ([3]; HCC1187, HCC1187 cell line, censored GI50 values): 15.5 nM
- GI50 ([3]; HCC1187, cell line HCC1187): 15.5 nM
- GI50 ([3]; HCC1395, HCC1395 cell line, censored GI50 values): 324 nM
- GI50 ([3]; HCC1395, cell line HCC1395): 324 nM
- GI50 ([3]; HCC1419, HCC1419 cell line, censored GI50 values): 263 nM
- GI50 ([3]; HCC1419, cell line HCC1419): 263 nM
- GI50 ([3]; HCC1428, HCC1428 cell line, censored GI50 values): 37.2 nM
- GI50 ([3]; HCC1428, cell line HCC1428): 37.2 nM
- GI50 ([3]; HCC1500, HCC1500 cell line, censored GI50 values): 224 nM
- GI50 ([3]; HCC1500, cell line HCC1500): 224 nM
- GI50 ([3]; HCC1806, HCC1806 cell line, censored GI50 values): 257 nM
- GI50 ([3]; HCC1806, cell line HCC1806): 257 nM
- GI50 ([3]; HCC1937, HCC1937 cell line, censored GI50 values): 389 nM
- GI50 ([3]; HCC1937, cell line HCC1937): 389 nM
- GI50 ([3]; HCC1954, HCC1954 cell line, censored GI50 values): 269 nM
- GI50 ([3]; HCC1954, cell line HCC1954): 269 nM
- GI50 ([3]; HCC2185 cell line, censored GI50 values): 126 nM
- GI50 ([3]; HCC3153 cell line, censored GI50 values): 347 nM
- GI50 ([3]; LY2 cell line, censored GI50 values): 7.94 nM
- GI50 ([3]; MCF7, MCF7 cell line, censored GI50 values): 191 nM
- GI50 ([3]; MCF7, cell line MCF7): 191 nM
- GI50 ([3]; MDA-MB-134-VI, MDAMB134VI cell line, censored GI50 values): 224 nM
- GI50 ([3]; MDA-MB-157, MDAMB157 cell line, censored GI50 values): 170 nM
- GI50 ([3]; MDA-MB-157, cell line MDAMB157): 170 nM
- GI50 ([3]; MDA-MB-175-VII, MDAMB175VII cell line, censored GI50 values): 191 nM
- GI50 ([3]; MDA-MB-231, MDAMB231 cell line, censored GI50 values): 251 nM
- GI50 ([3]; MDA-MB-231, cell line MDAMB231): 251 nM
- GI50 ([3]; MDA-MB-361, MDAMB361 cell line, censored GI50 values): 81.3 nM
- GI50 ([3]; MDA-MB-361, cell line MDAMB361): 81.3 nM
- GI50 ([3]; MDA-MB-415, MDAMB415 cell line, censored GI50 values): 60.3 nM
- GI50 ([3]; MDA-MB-415, cell line MDAMB415): 60.3 nM
- GI50 ([3]; MDA-MB-436, MDAMB436 cell line, censored GI50 values): 417 nM
- GI50 ([3]; MDA-MB-436, cell line MDAMB436): 417 nM
- GI50 ([3]; MDA-MB-453, MDAMB453 cell line, censored GI50 values): 87.1 nM
- GI50 ([3]; MDA-MB-453, cell line MDAMB453): 87.1 nM
- GI50 ([3]; MDA-MB-468, MDAMB468 cell line, censored GI50 values): 77.6 nM
- GI50 ([3]; MDA-MB-468, cell line MDAMB468): 77.6 nM
- GI50 ([3]; SK-BR-3, SKBR3 cell line, censored GI50 values): 224 nM
- GI50 ([3]; SK-BR-3, cell line SKBR3): 224 nM
- GI50 ([3]; SUM52PE, SUM52PE cell line, censored GI50 values): 182 nM
- GI50 ([3]; SUM52PE, cell line SUM52PE): 182 nM
- GI50 ([3]; SUM149PT, SUM149PT cell line, censored GI50 values): 398 nM
- GI50 ([3]; SUM149PT, cell line SUM149PT): 398 nM
- GI50 ([3]; SUM185PE, SUM185PE cell line, censored GI50 values): 55 nM
- GI50 ([3]; SUM185PE, cell line SUM185PE): 55 nM
- GI50 ([3]; SUM225CWN, SUM225CWN cell line, censored GI50 values): 67.6 nM
- GI50 ([3]; SUM225CWN, cell line SUM225CWN): 67.6 nM
- GI50 ([3]; SUM1315MO2, SUM1315MO2 cell line, censored GI50 values): 417 nM
- GI50 ([3]; SUM-159-PT, SUM159PT cell line, censored GI50 values): 427 nM
- GI50 ([3]; SUM-159-PT, cell line SUM159PT): 427 nM
- GI50 ([3]; T47D, T47D cell line, censored GI50 values): 457 nM
- GI50 ([3]; T47D, cell line T47D): 457 nM
- GI50 ([3]; UACC-893, UACC893 cell line, censored GI50 values): 186 nM
- GI50 ([3]; UACC-893, cell line UACC893): 186 nM
- GI50 ([3]; ZR-75-1, ZR751 cell line, censored GI50 values): 355 nM
- GI50 ([3]; ZR-75-1, cell line ZR751): 355 nM
- GI50 ([3]; ZR-75B, ZR75B cell line, censored GI50 values): 407 nM
- GI50 ([3]; ZR-75B, cell line ZR75B): 407 nM
- GI50 ([3]; cell line 600MPE): 288 nM
- GI50 ([3]; cell line HCC2185): 126 nM
- GI50 ([3]; cell line HCC3153): 347 nM
- GI50 ([3]; cell line LY2): 7.94 nM
- GI50 ([3]; cell line MDAMB134V): 224 nM
- GI50 ([3]; cell line MDAMB175V): 191 nM
- GI50 ([3]; cell line SUM1315MO): 417 nM
